Experimental data reported in PubChem BioAssay AID1963965 (Molecular Pharmacology Branch, DTP, NCI, 2024).

System: 996289-038-R-J1-PDC spheroid viability
Assay: Anticancer human tumor 996289-038-R-J1-PDC patient-derived colon adenocarcinoma cell line growth inhibition [PI3K]
Conditions: spheroids with HUVEC and MSC; for IC50: curve of first compound; for viability, T/C: stronger effect = lower value
In short: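 Targeted small molecules plus PI3K inhibitors, half-log dose series from Cmax (default top 10 microM), were applied to heterotypic spheroids of cancer cells with HUVEC and MSCs. Viability indicated growth inhibition.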

[1] = second compound 0.0316 µM, first compound 0.0316 µM
[2] = second compound 0.0316 µM, first compound 0.1 µM
[3] = second compound 0.0316 µM, first compound 0.316 µM
[4] = second compound 0.0316 µM, first compound 1 µM
[5] = second compound 0.0316 µM, first compound 3.16 µM
[6] = second compound 0.0316 µM, first compound 10 µM
[7] = second compound 0.1 µM, first compound 0.0316 µM
[8] = second compound 0.1 µM, first compound 0.1 µM
[9] = second compound 0.1 µM, first compound 0.316 µM
[10] = second compound 0.1 µM, first compound 1 µM
[11] = second compound 0.1 µM, first compound 3.16 µM
[12] = second compound 0.1 µM, first compound 10 µM
[13] = second compound 0.316 µM, first compound 0.0316 µM
[14] = second compound 0.316 µM, first compound 0.1 µM
[15] = second compound 0.316 µM, first compound 0.316 µM
[16] = second compound 0.316 µM, first compound 1 µM
[17] = second compound 0.316 µM, first compound 3.16 µM
[18] = second compound 0.316 µM, first compound 10 µM
[19] = second compound 1 µM, first compound 0.0316 µM
[20] = second compound 1 µM, first compound 0.1 µM
[21] = second compound 1 µM, first compound 0.316 µM
[22] = second compound 1 µM, first compound 1 µM
[23] = second compound 1 µM, first compound 3.16 µM
[24] = second compound 1 µM, first compound 10 µM
[25] = second compound 3.16 µM, first compound 0.0316 µM
[26] = second compound 3.16 µM, first compound 0.1 µM
[27] = second compound 3.16 µM, first compound 0.316 µM
[28] = second compound 3.16 µM, first compound 1 µM
[29] = second compound 3.16 µM, first compound 3.16 µM
[30] = second compound 3.16 µM, first compound 10 µM
[31] = second compound 10 µM, first compound 0.0316 µM
[32] = second compound 10 µM, first compound 0.1 µM
[33] = second compound 10 µM, first compound 0.316 µM
[34] = second compound 10 µM, first compound 1 µM
[35] = second compound 10 µM, first compound 3.16 µM
[36] = second compound 10 µM, first compound 10 µM
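Note: spheroids exposed to compounds for seven days before viability read.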
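Throughout, for viability, T/C: luminescence used as a proxy for viable cell amount; percent viability relative to DMSO vehicle control as 100%.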

CC(Cn1ccc(-c2ccc(C#N)c(Cl)c2)n1)NC(=O)c1cc(C(C)O)[nH]n1 (centres undefined) + CC(Nc1ncnc2nc[nH]c12)c1cc2cccc(Cl)c2c(=O)n1-c1ccccc1
IC50 (second compound 0.0316 µM): > 10 µM | IC50 (second compound 0.1 µM): > 10 µM | IC50 (second compound 0.316 µM): > 10 µM | IC50 (second compound 1 µM): > 10 µM | IC50 (second compound 3.16 µM): > 10 µM | IC50 (second compound 10 µM): > 10 µM | viability, T/C [1]: 109% | viability, T/C [2]: 89.9% | viability, T/C [3]: 108% | viability, T/C [4]: 110% | viability, T/C [5]: 106% | viability, T/C [6]: 101% | viability, T/C [7]: 95.2% | viability, T/C [8]: 97.3% | viability, T/C [9]: 102% | viability, T/C [10]: 101% | viability, T/C [11]: 110% | viability, T/C [12]: 91.5% | viability, T/C [13]: 105% | viability, T/C [14]: 99.2% | viability, T/C [15]: 105% | viability, T/C [16]: 93.9% | viability, T/C [17]: 113% | viability, T/C [18]: 91.3% | viability, T/C [19]: 95.7% | viability, T/C [20]: 96.2% | viability, T/C [21]: 97.3% | viability, T/C [22]: 99.3% | viability, T/C [23]: 102% | viability, T/C [24]: 106% | viability, T/C [25]: 91.6% | viability, T/C [26]: 92.7% | viability, T/C [27]: 96.7% | viability, T/C [28]: 90.6% | viability, T/C [29]: 91.9% | viability, T/C [30]: 84.7% | viability, T/C [31]: 80.2% | viability, T/C [32]: 81.8% | viability, T/C [33]: 84.6% | viability, T/C [34]: 91.5% | viability, T/C [35]: 100% | viability, T/C [36]: 89.8%

CC1(C)CCC(Nc2ncc(C(F)(F)F)c(-c3c[nH]c4c(P(C)(C)=O)c(C#N)ccc34)n2)CN1 (centres undefined) + CC(Nc1ncnc2nc[nH]c12)c1cc2cccc(Cl)c2c(=O)n1-c1ccccc1
IC50 (second compound 0.0316 µM): 6.14 µM | IC50 (second compound 0.1 µM): 5.51 µM | IC50 (second compound 0.316 µM): 5.94 µM | IC50 (second compound 1 µM): 5.43 µM | IC50 (second compound 3.16 µM): 5.26 µM | IC50 (second compound 10 µM): 4.66 µM | viability, T/C [1]: 95.8% | viability, T/C [2]: 84.5% | viability, T/C [3]: 85.2% | viability, T/C [4]: 77.9% | viability, T/C [5]: 84% | viability, T/C [6]: 25% | viability, T/C [7]: 88.9% | viability, T/C [8]: 87.3% | viability, T/C [9]: 77.9% | viability, T/C [10]: 75.4% | viability, T/C [11]: 78.1% | viability, T/C [12]: 20.1% | viability, T/C [13]: 95.7% | viability, T/C [14]: 83.8% | viability, T/C [15]: 85.8% | viability, T/C [16]: 77.9% | viability, T/C [17]: 87.8% | viability, T/C [18]: 19.9% | viability, T/C [19]: 88.6% | viability, T/C [20]: 86.1% | viability, T/C [21]: 72.8% | viability, T/C [22]: 72.3% | viability, T/C [23]: 80.3% | viability, T/C [24]: 16% | viability, T/C [25]: 82.6% | viability, T/C [26]: 81.3% | viability, T/C [27]: 74.2% | viability, T/C [28]: 74.4% | viability, T/C [29]: 79.2% | viability, T/C [30]: 14.2% | viability, T/C [31]: 90.9% | viability, T/C [32]: 74.5% | viability, T/C [33]: 58.3% | viability, T/C [34]: 70.3% | viability, T/C [35]: 69.8% | viability, T/C [36]: 10.9%
